Test results from US10745384B2, “Indazole derivatives as αv integrin antagonists” (BRISTOL-MYERS SQUIBB COMPANY, priority 2016, dated 2020).
Structures can show the parent of a compound that is named as a salt.

Target: T1, human αVβ6 (Homo sapiens, UniProt P06756+P18564)
T1 construct: purchased R & D systems 3817-AV
Assay: human αVβ6 HTRF binding assay
Conditions: recombinant human αVβ6 integrin, FITC-conjugated fibronectin
Method in brief: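 HTRF binding in 20 mM Tris pH 7.4 with 1 mM MgCl2, 1 mM MnCl2, 0.01% Tween 20 and 0.01% BSA. For αVβ6, biotinylated integrin (1.25 nM) and FITC-fibronectin (5 nM) were incubated 1 h at RT, then streptavidin-terbium (0.625 nM) was added overnight in the dark. An SPA-based fibronectin binding format was an alternative.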

T1 sequence (P06756 31-992 limits assumed): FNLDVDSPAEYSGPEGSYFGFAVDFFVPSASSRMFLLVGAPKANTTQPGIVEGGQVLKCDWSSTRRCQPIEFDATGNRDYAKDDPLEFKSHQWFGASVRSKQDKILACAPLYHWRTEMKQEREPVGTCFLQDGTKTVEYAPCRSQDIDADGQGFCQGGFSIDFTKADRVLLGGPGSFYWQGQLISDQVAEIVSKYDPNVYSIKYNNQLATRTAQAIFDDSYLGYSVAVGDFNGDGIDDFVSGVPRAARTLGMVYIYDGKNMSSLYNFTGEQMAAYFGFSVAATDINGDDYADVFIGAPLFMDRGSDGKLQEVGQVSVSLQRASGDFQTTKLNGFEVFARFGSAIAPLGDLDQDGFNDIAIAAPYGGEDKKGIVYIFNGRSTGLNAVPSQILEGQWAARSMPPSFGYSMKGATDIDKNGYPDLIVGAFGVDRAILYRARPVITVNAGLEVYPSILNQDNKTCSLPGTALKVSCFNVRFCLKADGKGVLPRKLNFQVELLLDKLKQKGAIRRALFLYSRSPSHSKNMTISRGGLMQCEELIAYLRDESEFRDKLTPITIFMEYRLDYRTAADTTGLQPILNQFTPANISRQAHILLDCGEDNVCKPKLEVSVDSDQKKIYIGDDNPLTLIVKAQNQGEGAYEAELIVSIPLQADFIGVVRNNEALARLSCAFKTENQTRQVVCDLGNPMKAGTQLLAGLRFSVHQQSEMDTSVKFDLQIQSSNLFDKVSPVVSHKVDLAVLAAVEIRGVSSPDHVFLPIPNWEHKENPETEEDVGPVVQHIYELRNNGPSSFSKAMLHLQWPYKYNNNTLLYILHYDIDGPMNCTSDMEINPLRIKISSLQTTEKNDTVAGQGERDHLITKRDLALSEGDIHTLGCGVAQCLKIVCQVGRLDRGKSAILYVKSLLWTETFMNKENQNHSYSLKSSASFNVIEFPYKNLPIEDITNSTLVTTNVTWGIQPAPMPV
T1 sequence (P18564 22-707 limits assumed): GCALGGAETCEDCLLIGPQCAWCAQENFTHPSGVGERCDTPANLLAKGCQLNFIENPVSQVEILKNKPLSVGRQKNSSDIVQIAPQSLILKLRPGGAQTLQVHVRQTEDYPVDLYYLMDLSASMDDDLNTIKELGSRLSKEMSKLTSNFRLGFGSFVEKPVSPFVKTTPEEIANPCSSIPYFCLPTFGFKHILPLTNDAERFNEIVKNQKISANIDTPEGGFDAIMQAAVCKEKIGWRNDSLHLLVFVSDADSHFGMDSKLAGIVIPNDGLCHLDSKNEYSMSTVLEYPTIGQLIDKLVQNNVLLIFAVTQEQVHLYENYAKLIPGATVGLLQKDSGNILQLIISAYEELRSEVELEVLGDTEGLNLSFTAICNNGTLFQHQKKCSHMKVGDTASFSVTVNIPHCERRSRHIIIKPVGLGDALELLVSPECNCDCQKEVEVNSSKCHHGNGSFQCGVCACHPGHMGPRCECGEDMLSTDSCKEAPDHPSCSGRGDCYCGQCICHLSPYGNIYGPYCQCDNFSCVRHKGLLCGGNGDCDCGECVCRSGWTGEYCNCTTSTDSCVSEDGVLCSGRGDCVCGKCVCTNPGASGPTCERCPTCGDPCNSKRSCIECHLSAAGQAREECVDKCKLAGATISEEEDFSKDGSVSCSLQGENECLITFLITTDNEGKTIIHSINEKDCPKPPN

Compound | IC50 [nM]
O=C(N[C@@H](Cn1cc2cc(OCc3ccc4c(n3)NCCC4)ccc2n1)C(=O)O)OCc1ccccc1 [Example 98, (S)-2-(((Benzyloxy)carbonyl)amino)-3-(5-((5,6,7,8-tetrahydro-1,8-naphthyridin-2-yl)methoxy)-2H-indazol-2-yl)propanoic acid] | 160
O=C(O)C[C@H](c1cncc(CO)c1)n1ncc2cc(OCCc3ccc4c(n3)NCCC4)ccc21 [Example 99, (R)-3-(5-(Hydroxymethyl)pyridin-3-yl)-3-(5-(2-(5,6,7,8-tetrahydro-1,8-naphthyridin-2-yl)ethoxy)-1H-indazol-1-yl)propanoic acid] | 340
CCOc1ncc([C@@H](CC(=O)O)n2ncc3cc(OCCc4ccc5c(n4)NCCC5)ccc32)cn1 [Example 108, (R)-3-(2-Ethoxypyrimidin-5-yl)-3-(5-(2-(5,6,7,8-tetrahydro-1,8-naphthyridin-2-yl)ethoxy)-1H-indazol-1-yl) propanoic acid, TFA] | 390
O=C(O)CC(c1cnc(N2CCOCC2)nc1)n1ncc2cc(OCCc3ccc4c(n3)NCCC4)ccc21 (centres unmarked) [Example 111, 3-(2-Morpholinopyrimidin-5-yl)-3-(5-(2-(5,6,7,8-tetrahydro-1,8-naphthyridin-2-yl)ethoxy)-1H-indazol-1-yl)propanoic acid, TFA] | 24
O=C(O)CC(c1ccc2nncn2c1)n1ncc2cc(OCCc3ccc4c(n3)NCCC4)ccc21 (centres unmarked) [Example 115, 3-([1,2,4]Triazolo[4,3-a]pyridin-6-yl)-3-(5-(2-(5,6,7,8-tetrahydro-1,8-naphthyridin-2-yl)ethoxy)-1H-indazol-1-yl)propanoic acid] | 60
CC(C)(C)OC(=O)NCc1cncc(C(CC(=O)O)n2ncc3cc(OCCc4ccc5c(n4)NCCC5)ccc32)c1 (centres unmarked) [Example 123, 3-(5-(((tert-Butoxycarbonyl)amino)methyl)pyridin-3-yl)-3-(5-(2-(5,6,7,8-tetrahydro-1,8-naphthyridin-2-yl)ethoxy)-1H-indazol-1-yl)propanoic acid] | 5.5
O=C(O)C[C@H](c1cnc2nccnc2c1)n1ncc2cc(OCCc3ccc4c(n3)NCCC4)ccc21 [Example 128, (R)-3-(Pyrido[2,3-b]pyrazin-7-yl)-3-(5-(2-(5,6,7,8-tetrahydro-1,8-naphthyridin-2-yl)ethoxy)-1H-indazol-1-yl)propanoic acid] | 25
O=C(O)C[C@@H](c1cnc2nccnc2c1)n1ncc2cc(OCCc3ccc4c(n3)NCCC4)ccc21 [Example 129, (S)-3-(Pyrido[2,3-b]pyrazin-7-yl)-3-(5-(2-(5,6,7,8-tetrahydro-1,8-naphthyridin-2-yl)ethoxy)-1H-indazol-1-yl)propanoic acid] | 480
O=C(O)CC(c1ccn2cnnc2c1)n1ncc2cc(OCCc3ccc4c(n3)NCCC4)ccc21 (centres unmarked) [Example 130, 3-([1,2,4]Triazolo[4,3-a]pyridin-7-yl)-3-(5-(2-(5,6,7,8-tetrahydro-1,8-naphthyridin-2-yl)ethoxy)-1H-indazol-1-yl)propanoic acid] | 57
NCc1cncc(C(CC(=O)O)n2ncc3cc(OCCc4ccc5c(n4)NCCC5)ccc32)c1 (centres unmarked) [Example 131, 3-(5-(Aminomethyl)pyridin-3-yl)-3-(5-(2-(5,6,7,8-tetrahydro-1,8-naphthyridin-2-yl)ethoxy)-1H-indazol-1-yl)propanoic acid] | 30
COc1ncc(C(CC(=O)O)n2ncc3cc(OCCc4ccc5c(n4)NCCC5)ccc32)cc1C1OCCO1 (centres unmarked) [Example 133, 3-(5-(1,3-Dioxolan-2-yl)-6-methoxypyridin-3-yl)-3-(5-(2-(5,6,7,8-tetrahydro-1,8-naphthyridin-2-yl)ethoxy)-1H-indazol-1-yl)propanoic acid] | 400
Cn1cc2ncc(C(CC(=O)O)n3ncc4cc(OCCc5ccc6c(n5)NCCC6)ccc43)cc2n1 (centres unmarked) [Example 136, 3-(2-Methyl-2H-pyrazolo[4,3-b]pyridin-6-yl)-3-(5-(2-(5,6,7,8-tetrahydro-1,8-naphthyridin-2-yl)ethoxy)-1H-indazol-1-yl)propanoic acid] | 41
O=C(O)C[C@H](c1cncc(C2OCCO2)c1)n1ncc2cc(OCCc3ccc4c(n3)NCCC4)ccc21 [Example 138, (R)-3-(5-(1,3-dioxolan-2-yl)pyridin-3-yl)-3-(5-(2-(5,6,7,8-tetrahydro-1,8-naphthyridin-2-yl)ethoxy)-1H-indazol-1-yl)propanoic acid] | 43

More lines, now with the values ahead:

IC50 [nM] | Compound
7.2 | O=C(O)CC(c1ccc2cccnc2n1)n1ncc2cc(OCCc3ccc4c(n3)NCCC4)ccc21 (centres unmarked) [Example 96, 3-(1,8-Naphthyridin-2-yl)-3-(5-(2-(5,6,7,8-tetrahydro-1,8-naphthyridin-2-yl)ethoxy)-1H-indazol-1-yl)propanoic acid, 2 TFA]
5.4 | O=C(O)CC(c1cnc2c(cnn2C2CCCCO2)c1)n1ncc2cc(OCCc3ccc4c(n3)NCCC4)ccc21 (centres unmarked) [Example 103, 3-(5-(2-(5,6,7,8-tetrahydro-1,8-naphthyridin-2-yl)ethoxy)-1H-indazol-1-yl)-3-(1-(tetrahydro-2H-pyran-2-yl)pyrazolo[3,4-b]pyridin-5-yl)propanoic acid, TFA]
10 | CN(C)Cc1cncc(C(CC(=O)O)n2ncc3cc(OCCc4ccc5c(n4)NCCC5)ccc32)c1 (centres unmarked) [Example 105, 3-(5-((Dimethylamino)methyl)pyridin-3-yl)-3-(5-(2-(5,6,7,8-tetrahydro-1,8-naphthyridin-2-yl)ethoxy)-1H-indazol-1-yl)propanoic acid]
19 | O=C(O)CC(c1ccc2ncsc2c1)n1ncc2cc(OCCc3ccc4c(n3)NCCC4)ccc21 (centres unmarked) [Example 110, 3-(Benzo[d]thiazol-6-yl)-3-(5-(2-(5,6,7,8-tetrahydro-1,8-naphthyridin-2-yl)ethoxy)-1H-indazol-1-yl)propanoic acid, TFA]
2.6 | COc1ccc(C(CC(=O)O)n2ncc3cc(OCCc4ccc5c(n4)NCCC5)ccc32)nn1 (centres unmarked) [Example 114, 3-(6-Methoxypyridazin-3-yl)-3-(5-(2-(5,6,7,8-tetrahydro-1,8-naphthyridin-2-yl)ethoxy)-1H-indazol-1-yl)propanoic acid, TFA]
5.9 | O=C(O)CC(c1ccc2c(n1)NCCC2)n1ncc2cc(OCCc3ccc4c(n3)NCCC4)ccc21 (centres unmarked) [Example 116, 3-(5,6,7,8-Tetrahydro-1,8-naphthyridin-2-yl)-3-(5-(2-(5,6,7,8-tetrahydro-1,8-naphthyridin-2-yl)ethoxy)-1H-indazol-1-yl)propanoic acid, 2 TFA]
14 | CCN1CCn2c(C(CC(=O)O)n3ncc4cc(OCCc5ccc6c(n5)NCCC6)ccc43)cnc2C1 (centres unmarked) [Example 122, 3-(7-Ethyl-5,6,7,8-tetrahydroimidazo[1,2-a]pyrazin-3-yl)-3-(5-(2-(5,6,7,8-tetrahydro-1,8-naphthyridin-2-yl)ethoxy)-1H-indazol-1-yl)propanoic acid]
1.9 | O=C(O)CC(c1cncc(N2CCOCC2)c1)n1ncc2cc(OCCc3ccc4c(n3)NCCC4)ccc21 (centres unmarked) [Example 124, 3-(5-Morpholinopyridin-3-yl)-3-(5-(2-(5,6,7,8-tetrahydro-1,8-naphthyridin-2-yl)ethoxy)-1H-indazol-1-yl)propanoic acid, 3 TFA]
4.7 | CS(=O)(=O)c1cncc(C(CC(=O)O)n2ncc3cc(OCCc4ccc5c(n4)NCCC5)ccc32)c1 (centres unmarked) [Example 125, 3-(5-(Methylsulfonyl)pyridin-3-yl)-3-(5-(2-(5,6,7,8-tetrahydro-1,8-naphthyridin-2-yl)ethoxy)-1H-indazol-1-yl)propanoic acid, 2 TFA]
21 | Cn1cnc2cc(C(CC(=O)O)n3ncc4cc(OCCc5ccc6c(n5)NCCC6)ccc43)cnc21 (centres unmarked) [Example 126, 3-(3-Methyl-3H-imidazo[4,5-b]pyridin-6-yl)-3-(5-(2-(5,6,7,8-tetrahydro-1,8-naphthyridin-2-yl)ethoxy)-1H-indazol-1-yl)propanoic acid, 2 TFA]
6.2 | O=C(O)CC(c1cncc(N2CCCC2)c1)n1ncc2cc(OCCc3ccc4c(n3)NCCC4)ccc21 (centres unmarked) [Example 127, 3-(5-(Pyrrolidin-1-yl)pyridin-3-yl)-3-(5-(2-(5,6,7,8-tetrahydro-1,8-naphthyridin-2-yl)ethoxy)-1H-indazol-1-yl)propanoic acid, 3 TFA]
22 | O=C(O)CC(c1cnc2c(c1)OCO2)n1ncc2cc(OCCc3ccc4c(n3)NCCC4)ccc21 (centres unmarked) [Example 132, 3-([1,3]Dioxolo[4,5-b]pyridin-6-yl)-3-(5-(2-(5,6,7,8-tetrahydro-1,8-naphthyridin-2-yl)ethoxy)-1H-indazol-1-yl)propanoic acid]
17 | O=C(O)CC(c1cccc(-n2cccn2)n1)n1ncc2cc(OCCc3ccc4c(n3)NCCC4)ccc21 (centres unmarked) [Example 134, 3-(6-(1H-Pyrazol-1-yl)pyridin-2-yl)-3-(5-(2-(5,6,7,8-tetrahydro-1,8-naphthyridin-2-yl)ethoxy)-1H-indazol-1-yl)propanoic acid]
3.8 | O=C(O)CC(c1cnn(-c2ccncc2)c1)n1ncc2cc(OCCc3ccc4c(n3)NCCC4)ccc21 (centres unmarked) [Example 135, 3-(1-(Pyridin-4-yl)-1H-pyrazol-4-yl)-3-(5-(2-(5,6,7,8-tetrahydro-1,8-naphthyridin-2-yl)ethoxy)-1H-indazol-1-yl)propanoic acid]
7 | Cn1ncc2ncc(C(CC(=O)O)n3ncc4cc(OCCc5ccc6c(n5)NCCC6)ccc43)cc21 (centres unmarked) [Example 137, 3-(1-Methyl-1H-pyrazolo[4,3-b]pyridin-6-yl)-3-(5-(2-(5,6,7,8-tetrahydro-1,8-naphthyridin-2-yl)ethoxy)-1H-indazol-1-yl)propanoic acid]
4.7 | O=C(O)C[C@@H](c1cncc(C2OCCO2)c1)n1ncc2cc(OCCc3ccc4c(n3)NCCC4)ccc21 [Example 139, (S)-3-(5-(1,3-dioxolan-2-yl)pyridin-3-yl)-3-(5-(2-(5,6,7,8-tetrahydro-1,8-naphthyridin-2-yl)ethoxy)-1H-indazol-1-yl)propanoic acid]
